Patent US4732977A, “Carbapenem antibiotics” (priority 1986, dated 1988)
≈ marks a conversion by molar mass, not a printed value. Where two headings read alike, the source gives them in different places.

Experiments:
E. coli A20341-1 = assay: M.I.C., tube dilution; assay type: cell-based; details: overnight incubation at 37° C., Nutrient Broth
[1] = tested on: S. aureus A-9606 (Pen-res.); assay: M.I.C., tube dilution; assay type: cell-based; details: overnight incubation at 37° C.
K. pneumoniae A20468 = assay: M.I.C., tube dilution; assay type: cell-based; details: overnight incubation at 37° C., Nutrient Broth; listed as Ex. 15"C"
P. aeruginosa A21213 = assay: M.I.C., tube dilution; assay type: cell-based; details: Nutrient Broth
E. coli A15119 = assay: M.I.C., tube dilution; assay type: cell-based; details: overnight incubation at 37° C., Nutrient Broth; listed as Ex. 15"C"
S. marcescens A20019 = assay: M.I.C., tube dilution; assay type: cell-based; details: overnight incubation at 37° C., Nutrient Broth; listed as Ex. 15"C"
E. cloacae A-9659 = assay: M.I.C., tube dilution; assay type: cell-based; details: overnight incubation at 37° C., Nutrient Broth; listed as Ex. 15"C"
P. aeruginosa A-9843A [2] = assay: M.I.C., tube dilution; assay type: cell-based; details: overnight incubation at 37° C., Nutrient Broth; listed as Ex. 15"C"
P. mirabilis A-9900 [3] = assay: M.I.C., tube dilution; assay type: cell-based; details: overnight incubation at 37° C., Nutrient Broth; listed as Ex. 15"C"
[4] = Blood levels in mice after intramuscular administration;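 further: compounds dissolved in 0.1 M phosphate buffer at pH 7, data from one experiment using four mice for each compound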
Source text: Compounds were solubilized in 0.1 M phosphate buffer pH 7.
a single test; 4 mice used per compound.
Compounds were solubilized in 0.1 M phosphate buffer, pH 7.
on a single test; 4 mice per compound.

S. aureus A-9537 = assay: M.I.C., tube dilution; assay type: cell-based; details: listed as Ex. 15"C"
E. cloacae A-9656 = assay: M.I.C., tube dilution; assay type: cell-based; details: overnight incubation at 37° C., Nutrient Broth; listed as Ex. 15"C"
P. vulgaris A21559 = assay: M.I.C., tube dilution; assay type: cell-based; details: Nutrient Broth
S. pneumoniae A-9585 = assay: M.I.C., tube dilution; assay type: cell-based; details: overnight incubation at 37° C., Nutrient Broth
K. pneumoniae A-9664 = assay: M.I.C., tube dilution; assay type: cell-based; details: overnight incubation at 37° C., Nutrient Broth; listed as Ex. 15"C"
P. rettgeri A22424 = assay: M.I.C., tube dilution; assay type: cell-based; details: overnight incubation at 37° C., Nutrient Broth; listed as Ex. 15"C"
S. pyogenes A-9604 = assay: M.I.C., tube dilution; assay type: cell-based; details: overnight incubation at 37° C., Nutrient Broth; listed as Ex. 15"C"
P. morganii A15153 = assay: M.I.C., tube dilution; assay type: cell-based; details: printed M. morganii A15153; overnight incubation at 37° C.; listed as Ex. 15"C"
S. faecalis A20688 = assay: M.I.C., tube dilution; assay type: cell-based; details: Nutrient Broth
E. coli A-15119 = assay: Protective effect in intramuscular treatment of infected mice; assay type: in vivo; details: Escherichia coli, im; mice, i.m.; E. coli A15119; read-out: PD50/treatment
Procedure: (§1) The PD50 (dose in mg/kg required to give protection to 50% of the infected mice) is indicated.
with drugs 0 and 2 hours postinfection.
(§2) The PD50 (dose in mg/kg) required to give protection to 50% of the infected mice is indicated.

P. aeruginosa A24081 = assay: as above; assay type: in vivo; details: Pseudomonas aeruginosa, im; mice, i.m.; P. aeruginosa A24081; read-out: PD50/treatment
Source text: as §2

H. influenzae A21518 = assay: M.I.C., tube dilution; assay type: cell-based; details: Haemophilus influenzae, overnight incubation at 37° C., Nutrient Broth
K. pneumoniae A9664 = assay: Protective effect in intramuscular treatment of infected mice; assay type: in vivo; details: Klebsiella pneumoniae, im, K. pneumoniae A9664, read-out: PD50/treatment
Source text: as §2

S. aureus A-9606 = assay: as above; assay type: in vivo; details: Staphylococcus aureus, im; mice, i.m.; S. aureus A9606; read-out: PD50/treatment
Procedure: as §1
with drugs 0 and 2 hours postinfection.
as §2

[5] = tested on: S. aureus A15097 (Meth-res.); assay: M.I.C., tube dilution; assay type: cell-based; details: Staphylococcus aureus, overnight incubation at 37° C.
H. influenzae A-9833 = assay: M.I.C., tube dilution; assay type: cell-based; details: Haemophilus influenzae, A9833; overnight incubation at 37° C., Nutrient Broth
P. aeruginosa A-9843a [6] = assay: animal or person; assay type: in vivo, mice; details: Pseudomonas aeruginosa, A9843A, in Mus musculus, im, read-out: PD50/treatment
Procedure: as §1
with drugs 0 and 2 hours postinfection.
as §2

P. mirabilis A-9900 [7] = assay: Protective effect in intramuscular treatment of infected mice; assay type: in vivo; details: Proteus mirabilis, im; mice, i.m.; P. mirabilis A9900; read-out: PD50/treatment
Procedure: as §1
with drugs 0 and 2 hours postinfection.
as §2

B. fragilis A22696 = assay: M.I.C., tube dilution; assay type: cell-based; details: Bacteroides fragilis, overnight incubation at 37° C., Nutrient Broth
[8] = overnight incubation at 37° C., listed as Ex. 15"C"
[9] = mice, 20 mg/kg i.m. (table 9), 20 mg/kg

With `C[C@@H](O)C1C(=O)N2C(C(=O)[O-])=C(SCc3cn(C)n[n+]3C)CC12` (stereo partly drawn) [Example 15 "C", 3-[4-(N,N-dimethyl-1,2,3-triazolium)methylthio]-6α-[1-(R)-hydroxyethyl]-7-oxo-1-azabicyclo(3.2.0)hept-2-ene-2-carboxylate] the MIC (E. coli A20341-1) was 0.03 µg/mL (≈ 0.0887 µM), the MIC [1] was 0.03 µg/mL (≈ 0.0887 µM) and the MIC (K. pneumoniae A20468) was 0.13 µg/mL (≈ 0.384 µM). For the same compound, the MIC (P. aeruginosa A21213; [8]) was 0.5 µg/mL (≈ 1.48 µM), the MIC (E. coli A15119) was 0.06 µg/mL (≈ 0.177 µM) and the MIC (S. marcescens A20019) was 0.13 µg/mL (≈ 0.384 µM). It also gave an MIC (E. cloacae A-9659) of 0.13 µg/mL (≈ 0.384 µM), an MIC (P. aeruginosa A-9843A [2]) of 8 µg/mL (≈ 23.6 µM) and an MIC (P. mirabilis A-9900 [3]) of 0.06 µg/mL (≈ 0.177 µM). It also gave a T1/2 ([4]; mice, 20 mg/kg i.m. (table 9)) of 10 min, an AUC [4, 9] of 7300 ng·h/mL and a Cmax [4, 9] of 15100 ng/mL. For the same compound, the MIC (S. aureus A-9537; +50% serum) was 0.06 µg/mL (≈ 0.177 µM), the MIC (S. aureus A-9537; overnight incubation at 37° C., Nutrient Broth) was 0.016 µg/mL (≈ 0.0473 µM) and the MIC (E. cloacae A-9656) was 0.13 µg/mL (≈ 0.384 µM). For the same compound, the MIC (P. vulgaris A21559; [8]) was 0.06 µg/mL (≈ 0.177 µM), the MIC (S. pneumoniae A-9585) was 0.0005 µg/mL (≈ 0.00148 µM) and the MIC (K. pneumoniae A-9664) was 0.06 µg/mL (≈ 0.177 µM). It also gave an MIC (P. rettgeri A22424) of 0.25 µg/mL (≈ 0.739 µM), an MIC (S. pyogenes A-9604) of 0.0003 µg/mL (≈ 0.000887 µM) and an MIC (P. morganii A15153) of 0.25 µg/mL (≈ 0.739 µM). For the same compound, the MIC (S. faecalis A20688; overnight incubation at 37° C.) was 0.5 µg/mL (≈ 1.48 µM).

With `C[C@@H](O)[C@H]1C(=O)N2C(C(=O)[O-])=C(SCc3ccc[n+](C)c3)C[C@H]12` [Example 3, 3-(N-Methylpyridine-3-yl-methanethio)-6α-[1-(R)-hydroxyethyl]-7-oxo-1-azabicyclo(3.2.0)hept-2-ene-2-carboxylate] the ED50 (E. coli A-15119) was 1 mg/kg, the ED50 (P. aeruginosa A24081) was 0.8 mg/kg and the MIC (P. aeruginosa A21213; Pseudomonas aeruginosa, A21213, overnight incubation at 37° C., read-out: MIC) was 0.5 µg/mL (≈ 1.5 µM). The MIC (H. influenzae A21518) was 2 µg/mL (≈ 5.98 µM), the ED50 (K. pneumoniae A9664) was 3 mg/kg and the ED50 (S. aureus A-9606) was 0.07 mg/kg. It also gave an MIC [5] of 4 µg/mL (≈ 12 µM), an AUC ([4]; mouse, blood, im, 20 mg/kg) of 6900 ng·h/mL and a Cmax ([4]; mouse, blood, im, 20 mg/kg) of 14500 ng/mL. For the same compound, the half-life ([4]; mouse, blood, im, 20 mg/kg) was 10 min, the MIC (P. vulgaris A21559; Proteus vulgaris, A21559, overnight incubation at 37° C., read-out: MIC) was 0.016 µg/mL (≈ 0.0478 µM) and the MIC (H. influenzae A-9833) was 2 µg/mL (≈ 5.98 µM). The ED50 (P. aeruginosa A-9843a [6]) was 0.5 mg/kg, the ED50 (P. mirabilis A-9900 [7]) was 2 mg/kg and the MIC (B. fragilis A22696) was 0.5 µg/mL (≈ 1.5 µM). For the same compound, the MIC (S. faecalis A20688; Enterococcus faecalis, A20688, overnight incubation at 37° C., read-out: MIC) was 0.5 µg/mL (≈ 1.5 µM).
